pEC50: −log10 of the molar value. Where a name gives a salt, the structure may show the parent alone. A value given as a limit tells only on which side of the number the result lay.

Chain of Sphingosine 1-phosphate receptor 1 (P21453 whole entry): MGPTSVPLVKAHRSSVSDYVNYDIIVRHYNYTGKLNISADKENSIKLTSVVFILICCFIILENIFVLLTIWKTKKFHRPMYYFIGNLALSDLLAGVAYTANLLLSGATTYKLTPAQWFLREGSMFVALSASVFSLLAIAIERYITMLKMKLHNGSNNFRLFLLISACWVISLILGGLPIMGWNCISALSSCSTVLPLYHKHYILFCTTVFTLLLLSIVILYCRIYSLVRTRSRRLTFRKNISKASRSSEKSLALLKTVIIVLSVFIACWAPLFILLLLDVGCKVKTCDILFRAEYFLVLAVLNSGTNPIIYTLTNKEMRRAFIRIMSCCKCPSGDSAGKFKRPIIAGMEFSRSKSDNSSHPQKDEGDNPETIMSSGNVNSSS

One experiment concerns the target Sphingosine 1-phosphate receptor 1 (Homo sapiens, UniProt P21453). As to the kind of experiment: S1P1 receptor agonists, dose response, cell-based, agonist mode, 60K MLSMR set (AID 468).
Conditions: not given
Usually pEC50 stands for −log10 of the EC50, conventionally taken in molar units. `O=C(Nc1ccc(C(F)(F)F)cc1)C1CCCN1S(=O)(=O)c1cccc2cccnc12` (configuration not stated) [1-(8-quinolinylsulfonyl)-N-[4-(trifluoromethyl)phenyl]-2-pyrrolidinecarboxamide] gave a pEC50 of 5.01. `CCOC(=O)C1C(=O)C=C(c2ccc(OC)cc2)CC1c1ccco1` (configuration not stated) [6-(2-furanyl)-4-(4-methoxyphenyl)-2-oxo-1-cyclohex-3-enecarboxylic acid ethyl ester] had a pEC50 of 5.46. Same read-out and setting: next, `COc1cc(C#CC#CCN2CCCCC2)ccc1O` [2-methoxy-4-(5-piperidin-1-ylpenta-1,3-diynyl)phenol;hydrochloride]: 5.08. With `O=C(Nc1ncc(Br)s1)C(Cc1ccccc1)n1cccc1` (configuration not stated) [MLS000119027], the pEC50 is 5.65.

In turn, `Cc1cc(C=Nn2cnnc2)c(C)n1-c1ccc(OCc2ccccc2F)cc1` [MLS000112180] had a pEC50 of 5.96. Take `CC(C)COC(=O)NCCOC(=O)Nc1cccc(Cl)c1` [2-(2-methylpropoxycarbonylamino)ethyl N-(3-chlorophenyl)carbamate]: the pEC50 is 5.21. For `CCc1ccc(S(=O)(=O)NCCc2csc(-c3ccccc3)n2)s1` [5-ethyl-N-[2-(2-phenyl-1,3-thiazol-4-yl)ethyl]thiophene-2-sulfonamide], the negative logarithm of the EC50 (pEC50) is 5.06. On to `Cc1cc(C(=O)CSc2nnc(-c3ccccc3)n2-c2ccccc2)c(C)n1-c1nnc[nH]1`, for which the pEC50 was 5.28. Take `CCCN(C(=O)c1cccs1)c1nnc(-c2ccncc2)s1` [MLS000074637]: the pEC50 was 5.47. The compound `c1ccc(-c2ccc(-c3nc(-c4cccnc4)no3)cc2)cc1` [5-(4-phenylphenyl)-3-(3-pyridinyl)-1,2,4-oxadiazole] had a pEC50 of 5.63. For `Cc1nc2ccc3nc(NC(=O)C4COc5ccccc5O4)sc3c2s1` (configuration not stated) [MLS000100909], the pEC50 is 5.31. On the same count and under the same terms, the same measure for `CCC(NCc1ccc2c(c1)OCO2)=C1C(=O)NC(=O)N(C2CCCCC2)C1=O` [(5E)-5-[1-(1,3-benzodioxol-5-ylmethylamino)propylidene]-1-cyclohexyl-1,3-diazinane-2,4,6-trione]: 5.17; for `Cc1ccc(OCc2nc(-c3ccccc3)no2)c(C)c1` [5-[(2,4-dimethylphenoxy)methyl]-3-phenyl-1,2,4-oxadiazole]: 5.58.

`Cc1ccc(-c2nnc(SCc3ccccc3F)o2)cc1` [2-[(2-fluorobenzyl)thio]-5-(4-methylphenyl)-1,3,4-oxadiazole] had a pEC50 of 5.75. The compound `COc1ccc(-c2noc(-c3cccc(OC)c3OC)n2)cc1OC` [5-(2,3-dimethoxyphenyl)-3-(3,4-dimethoxyphenyl)-1,2,4-oxadiazole] had a pEC50 of 5.84. `COc1cc(CSc2nnnn2-c2ccc(C)cc2)cc(OC)c1OC` [1-(4-methylphenyl)-5-[(3,4,5-trimethoxybenzyl)thio]-1H-tetrazole]: the pEC50 is 5.65. The same measure, in the same setting: the same measure for `O=C(NCc1ccc2c(c1)OCO2)C1CC(=O)N(C2CCCCCCC2)C1` (configuration not stated) [1-cyclooctyl-5-keto-N-piperonyl-pyrrolidine-3-carboxamide]: less than 4.02; for `Cn1c(=O)oc2cc(S(=O)(=O)N3CCCC(C(=O)N4CC=C(c5ccccc5)CC4)C3)ccc21` (configuration not stated) [3-methyl-6-[3-(4-phenyl-3,6-dihydro-2H-pyridine-1-carbonyl)piperidin-1-yl]sulfonyl-1,3-benzoxazol-2-one]: 5.02; for `O=S(=O)(c1cccs1)N1CCN(CC(O)COc2cc(Cl)ccc2Cl)CC1` (configuration not stated) [1-(2,5-dichlorophenoxy)-3-(4-thiophen-2-ylsulfonyl-1-piperazinyl)-2-propanol]: 5.38. `CCOc1ccc(S(=O)(=O)n2cnc3cc(C)c(C)cc32)cc1` [1-(4-Ethoxy-benzenesulfonyl)-5,6-dimethyl-1H-benzoimidazole] gave a pEC50 of 5.17. `Cc1cc(N2CCN(c3nc4ccccc4s3)CC2)n2ncnc2n1` [2-[4-(5-methyl-[1,2,4]triazolo[1,5-a]pyrimidin-7-yl)-1-piperazinyl]-1,3-benzothiazole] had a pEC50 of 5.10.

`COc1ccc2c(c1)CCc1c(C(=O)Nc3ccc(OC)c(OC)c3)noc1-2` [MLS000087452] had a pEC50 of 5.48. `CCN(C1CCCCC1)S(=O)(=O)c1ccc(S(=O)(=O)NCc2ccncc2)cc1` [4-N-cyclohexyl-4-N-ethyl-1-N-(pyridin-4-ylmethyl)benzene-1,4-disulfonamide] had a pEC50 of 5.26. Take `COc1cc(C(=O)N2CCN(S(=O)(=O)c3ccc(C)cc3)CC2)ccc1OCc1c(C)noc1C` [MLS000056221]: the negative-log EC50 (pEC50) was less than 4.02. Take `Cc1noc(/C=C/N(C)C)c1S(=O)(=O)N1CCN(c2ccccc2)CC1` [(E)-N,N-dimethyl-2-[3-methyl-4-(4-phenylpiperazin-1-yl)sulfonyl-1,2-oxazol-5-yl]ethenamine]: the pEC50 was less than 4.02.

Staying with this experiment, now noted: inactive by the depositor's call.
The compound `Oc1nnc(Sc2ncnc3sccc23)n1CCc1ccccc1` [4-(2-phenylethyl)-3-(4-thieno[2,3-d]pyrimidinylthio)-1H-1,2,4-triazol-5-one] had a pEC50 of 4.77. Same read-out and setting: next, `CC1CCN(S(=O)(=O)c2ccc3c(c2)oc(=O)n3CC(=O)NCc2ccc3c(c2)OCO3)CC1` [2-[2-keto-6-(4-methylpiperidino)sulfonyl-1,3-benzoxazol-3-yl]-N-piperonyl-acetamide]: 4.91; `CCSc1nc(N2CCOCC2)c2c(c1C#N)CCCC2` [3-(ethylthio)-1-(4-morpholinyl)-5,6,7,8-tetrahydroisoquinoline-4-carbonitrile]: 4.33; `O=S1(=O)C=C(Sc2nnc(-c3ccccc3)o2)c2ccccc21`: 4.69. For the compound `Cc1cc(N2CCOCC2)nc(NCc2ccccc2)n1` [4-methyl-6-(4-morpholinyl)-N-(phenylmethyl)-2-pyrimidinamine], the pEC50 was 4.88. As for `Cc1csc(NC(=O)c2nc(-c3ccccc3)n(-c3ccccc3)n2)n1` [MLS000058347], the pEC50 was 4.99. The compound `O=C(Nc1ccc(Oc2ccccc2)cc1)c1cnc2n(c1=O)CCS2` [5-keto-N-(4-phenoxyphenyl)-2,3-dihydrothiazolo[3,2-a]pyrimidine-6-carboxamide] gave a pEC50 of 4.78. `Cn1nc(CC(=O)Nc2ccc(N3CCN(C(=O)OC(C)(C)C)CC3)cc2)c2ccccc2c1=O` [4-[4-[[2-(3-methyl-4-oxo-1-phthalazinyl)-1-oxoethyl]amino]phenyl]-1-piperazinecarboxylic acid tert-butyl ester] gave a pEC50 of 4.88. `CCOC(=O)c1ccc(NC(=O)CCc2nc(-c3ccc(Cl)cc3)no2)cc1` [4-[3-[3-(4-chlorophenyl)-1,2,4-oxadiazol-5-yl]propanoylamino]benzoic acid ethyl ester] showed a pEC50 of 4.87. The same measure, in the same setting: next, `COc1ccccc1-c1cc(C(=O)Nc2cc(C)nn2-c2ccccc2)no1` [5-(2-methoxyphenyl)-N-(3-methyl-1-phenyl-1H-pyrazol-5-yl)isoxazole-3-carboxamide]: 4.33. Regarding `CCOC(=O)N1CCC(NC(=O)C2CCCN(Cc3nc(-c4cccc(Cl)c4)oc3C)C2)CC1` (configuration not stated) [4-[[1-[[2-(3-chlorophenyl)-5-methyl-oxazol-4-yl]methyl]nipecotoyl]amino]piperidine-1-carboxylic acid ethyl ester], the pEC50 was 4.74. On to `COc1ccc2ncn(-c3ccccc3)c2c1` [6-methoxy-1-phenyl-1H-1,3-benzodiazole], for which the pEC50 was 4.79.

For the origin of these results see BindingDB's records for doi:10.7270/Q2251GJ9 (The Scripps Research Institute Molecular Screening Center, 2007).
